Experimental data reported in patent publication US10172868B2, “Substituted quinazolines for inhibiting kinase activity” (NeuPharma, Inc., priority 2013, dated 2019).
pIC50: −log10 of the molar value.

Columns and labels:
EGFR (ErbB1) T790M L858R = EGFR (ErbB1) T790M L858R (Homo sapiens (Human), UniProt P00533, L858R/T790M); experiment: Z'-LYTE kinase inhibition assay, EGFR L858R/T790M; format: biochemical; settings: read-out: IC50 against EGFR L858R/T790M
Procedure, shortened: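 IC50 taken from 10-point, 3-fold serial dilutions tested in 1% DMSO. The mutant kinase and peptide were prepared in HEPES pH 6.5 buffer with BRIJ-35, MgCl2, EGTA and NaN3, then reacted with ATP for 1 h at room temperature. Development reagent was added for a further hour before the fluorescence readout.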

EGFR (ErbB1) = EGFR (ErbB1) (Homo sapiens (Human), UniProt P00533); experiment: Z'-LYTE kinase inhibition assay, EGFR; format: biochemical
Sequence of EGFR (ErbB1) (P00533 25-1210): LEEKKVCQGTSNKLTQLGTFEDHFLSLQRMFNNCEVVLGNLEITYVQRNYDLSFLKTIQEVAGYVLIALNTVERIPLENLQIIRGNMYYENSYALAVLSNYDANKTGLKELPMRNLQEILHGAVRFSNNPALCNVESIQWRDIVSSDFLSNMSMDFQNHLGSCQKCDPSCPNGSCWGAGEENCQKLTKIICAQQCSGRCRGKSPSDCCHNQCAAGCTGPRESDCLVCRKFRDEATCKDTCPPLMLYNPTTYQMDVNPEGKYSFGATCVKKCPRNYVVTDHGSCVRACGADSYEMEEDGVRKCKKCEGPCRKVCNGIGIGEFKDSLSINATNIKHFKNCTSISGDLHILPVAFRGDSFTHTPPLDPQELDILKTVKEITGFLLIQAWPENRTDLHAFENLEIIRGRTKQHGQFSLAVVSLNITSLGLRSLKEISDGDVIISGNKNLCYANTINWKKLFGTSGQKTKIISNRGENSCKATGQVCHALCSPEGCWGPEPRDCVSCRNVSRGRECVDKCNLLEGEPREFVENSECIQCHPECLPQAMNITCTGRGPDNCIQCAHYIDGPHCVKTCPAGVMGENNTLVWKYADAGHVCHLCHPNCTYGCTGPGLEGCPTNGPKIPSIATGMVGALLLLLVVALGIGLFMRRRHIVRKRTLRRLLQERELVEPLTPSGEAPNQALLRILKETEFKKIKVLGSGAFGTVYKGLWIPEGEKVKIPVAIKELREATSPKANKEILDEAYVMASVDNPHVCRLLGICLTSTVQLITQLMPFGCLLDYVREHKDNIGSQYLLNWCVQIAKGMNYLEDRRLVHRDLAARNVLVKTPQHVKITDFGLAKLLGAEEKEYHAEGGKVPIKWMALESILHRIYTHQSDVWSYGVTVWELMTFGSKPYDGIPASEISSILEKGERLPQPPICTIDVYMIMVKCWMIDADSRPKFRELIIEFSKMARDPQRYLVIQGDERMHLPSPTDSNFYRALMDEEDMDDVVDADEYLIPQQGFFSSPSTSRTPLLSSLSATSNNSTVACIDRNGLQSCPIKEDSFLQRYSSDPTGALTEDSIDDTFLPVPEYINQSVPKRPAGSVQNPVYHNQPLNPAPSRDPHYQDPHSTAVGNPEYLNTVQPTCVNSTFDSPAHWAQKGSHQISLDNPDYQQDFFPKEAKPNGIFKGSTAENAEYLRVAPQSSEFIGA
Procedure, shortened: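 IC50 values derived from 10-point, 3-fold compound dilution series (1% DMSO final) using Z'-LYTE fluorescence readout after 60-min development. Reaction: EGFR (1.1-5.25 ng) with 2 μM peptide, 60 min at room temperature in HEPES pH 7.5 buffer containing MgCl2, MnCl2, EGTA, DTT and BRIJ-35.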

HCC827 cells = experiment: cells; settings: Homo sapiens, HCC827, 72 h, read-out: IC50 in HCC827 cells
Experimental: Taxol (as a positive control. Sigma) and compounds were dissolved in DMSO (Sigma), and the final concentration of DMSO in the medium was 1%. Tumor cells were plated in 96-well plates at densities of about 4000 cells/well of a 96-well plate and allowed to adhere/grow for 24 h. They were then treated with various concentrations of drug for 72 h, 3-(4,5-Dimethylthiazol-2-yl)-2,5-diphenyltetrazolium bromide (MTT, Sigma) was used to determine the number of viable cells at the time of compound addition and the number of cells remaining after 72 h compound exposure. The number of cells remaining after 72 h was compared to the number of viable cells at the time of compound addition by measuring the absorbance at 570 nm, allowing for the calculation of growth inhibition.
All concentrations of compounds were tested in triplicate and controls were averaged over 4 wells. IC50 was calculated by plotting the concentration of compound vs the percentage of inhibition in treated wells using GraphPad Prism 5.
The scale utilized in Tables 5 is as follows: +++ less than 100 nM; ++ between 100 nM and 500 nM; and + greater than 500 nM.

BTK = BTK (Homo sapiens (Human), UniProt Q06187); experiment: Z'-LYTE kinase inhibition assay, BTK; format: biochemical; settings: compound at 0.041 μM; read-out: % inhibition against BTK
Sequence of BTK (Q06187 whole entry): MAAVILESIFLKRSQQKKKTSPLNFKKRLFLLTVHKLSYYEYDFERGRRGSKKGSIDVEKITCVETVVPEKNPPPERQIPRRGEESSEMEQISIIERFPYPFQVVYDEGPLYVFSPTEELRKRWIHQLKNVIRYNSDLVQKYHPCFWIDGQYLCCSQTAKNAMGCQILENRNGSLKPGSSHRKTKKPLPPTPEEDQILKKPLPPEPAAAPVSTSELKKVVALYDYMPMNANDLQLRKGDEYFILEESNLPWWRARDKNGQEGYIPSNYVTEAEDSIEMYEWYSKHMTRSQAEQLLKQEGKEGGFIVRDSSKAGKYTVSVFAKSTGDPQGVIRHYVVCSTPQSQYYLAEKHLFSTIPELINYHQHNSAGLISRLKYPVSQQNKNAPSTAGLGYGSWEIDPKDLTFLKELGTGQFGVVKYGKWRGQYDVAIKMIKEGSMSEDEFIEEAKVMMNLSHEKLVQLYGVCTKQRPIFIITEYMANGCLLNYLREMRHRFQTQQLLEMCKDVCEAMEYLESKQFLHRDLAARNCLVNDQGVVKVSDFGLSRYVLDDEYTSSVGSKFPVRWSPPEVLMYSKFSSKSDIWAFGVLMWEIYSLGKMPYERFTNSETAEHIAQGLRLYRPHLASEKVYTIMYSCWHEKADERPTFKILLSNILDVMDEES
Procedure, shortened: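 Z'-LYTE FRET assay with Tyr 01 peptide in 50 mM HEPES pH 7.5, 10 mM MgCl2, 1 mM EGTA, 0.01% BRIJ-35. Compounds in 1% DMSO were tested as 10-point, 3-fold titrations.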

H1975 cells = experiment: Inhibition of cancer cell growth, MTT assay, H1975; settings: Homo sapiens, NCI-H1975, 72 h, read-out: IC50 in H1975 cells
JAK2 = JAK2 (Homo sapiens (Human), UniProt O60674); experiment: Z'-LYTE kinase inhibition assay, JAK2; format: biochemical; settings: compound at 0.041 μM; read-out: % inhibition against JAK2
Sequence of JAK2 (O60674 whole entry): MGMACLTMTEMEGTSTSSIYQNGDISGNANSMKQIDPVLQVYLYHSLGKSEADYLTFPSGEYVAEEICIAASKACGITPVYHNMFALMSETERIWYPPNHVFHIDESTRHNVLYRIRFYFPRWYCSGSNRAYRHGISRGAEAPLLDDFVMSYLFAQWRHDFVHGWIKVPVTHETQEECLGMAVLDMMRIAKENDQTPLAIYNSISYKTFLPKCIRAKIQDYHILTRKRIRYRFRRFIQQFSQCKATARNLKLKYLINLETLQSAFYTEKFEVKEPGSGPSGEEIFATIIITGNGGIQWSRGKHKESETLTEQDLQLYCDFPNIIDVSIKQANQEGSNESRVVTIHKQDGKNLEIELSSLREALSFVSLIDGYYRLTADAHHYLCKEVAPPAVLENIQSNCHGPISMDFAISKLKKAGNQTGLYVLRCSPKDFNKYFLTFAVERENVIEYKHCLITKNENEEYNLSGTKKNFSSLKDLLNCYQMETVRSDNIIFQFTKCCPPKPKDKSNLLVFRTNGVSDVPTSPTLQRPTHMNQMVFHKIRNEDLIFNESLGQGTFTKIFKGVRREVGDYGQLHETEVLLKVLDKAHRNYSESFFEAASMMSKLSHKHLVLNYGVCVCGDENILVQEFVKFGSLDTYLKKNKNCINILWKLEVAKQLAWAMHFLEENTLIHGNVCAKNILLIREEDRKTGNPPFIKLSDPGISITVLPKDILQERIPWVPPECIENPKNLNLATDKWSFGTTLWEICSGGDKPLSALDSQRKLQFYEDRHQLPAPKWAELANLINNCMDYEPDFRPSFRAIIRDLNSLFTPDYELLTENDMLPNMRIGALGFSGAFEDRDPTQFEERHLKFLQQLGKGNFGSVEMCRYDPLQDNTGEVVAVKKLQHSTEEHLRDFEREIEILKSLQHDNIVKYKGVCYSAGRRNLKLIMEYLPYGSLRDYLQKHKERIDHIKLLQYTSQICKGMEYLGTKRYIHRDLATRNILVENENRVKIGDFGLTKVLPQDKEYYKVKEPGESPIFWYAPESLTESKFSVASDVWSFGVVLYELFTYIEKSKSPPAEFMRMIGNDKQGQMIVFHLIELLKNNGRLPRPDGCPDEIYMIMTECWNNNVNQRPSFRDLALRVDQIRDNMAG
Experimental: Inhibitory activities of compounds against BTK, EGFR and EGFR mutants (EGFR L858R, EGFR T790M, EGFR L858R/T790M), FGFR1, FGFR2, JAK2, JAK3 and KDR were measured by Invitrogen using Z'-LYTE® Method as briefly described in the following.
Test Compounds are screened in 1% DMSO (final) in the well. For 10 point titrations, 3-fold serial dilutions are conducted from the starting concentration. All ATP Solutions are diluted to a 4× working concentration in Kinase Buffer (50 mM HEPES pH 7.5, 0.01% BRIJ-35, 10 mM MgCl2, 1 mM EGTA). Peptide/Kinase Mixtures are diluted to a 2× working concentration in the appropriate Kinase Buffers as described below.
(v) Peptide/Kinase Mixtures for Measurement of JAK2:
The 2×JAK2/Tyr 06 mixture is prepared in 50 mM HEPES pH 7.5, 0.01% BRIJ-35, 10 mM MgCl2, 1 mM EGTA. The final 10 μL Kinase Reaction consists of 0.06-0.81 ng JAK2 and 2 μM Tyr 06 in 50 mM HEPES pH 7.5, 0.01% BRIJ-35, 10 mM MgCl2, 1 mM EGTA. After the 1 hour Kinase Reaction incubation, 5 μL of a 1:64 dilution of Development Reagent A is added.
Reaction starts by 30-second shaking of mixture consisting of 2.5 μL 4× test compound, […] 2× kinase reaction mixture and 2.5 μL 4×ATP Solution on Bar-coded Corning, low volume NBS, black 384-well plate (Corning Cat. #3676). Then the mixture is incubated for 60-minute at room temperature for the kinase reaction, followed by addition of 5 μL of a 1:1024 dilution of development reagent A and 30-second plate shake. The mixture is then incubated for another 60-minute at room temperature for development reaction. Finally fluorescence is read by plate reader.

A431 cells = experiment: cells; settings: Homo sapiens, A-431, 72 h, read-out: IC50 in A431 cells
H1299 cells = experiment: Inhibition of cancer cell growth, MTT assay, H1299; settings: Homo sapiens, NCI-H1299, 72 h, read-out: IC50 in H1299 cells

Sequence of EGFR (ErbB1) T790M L858R (P00533 25-1210 T790M/L858R): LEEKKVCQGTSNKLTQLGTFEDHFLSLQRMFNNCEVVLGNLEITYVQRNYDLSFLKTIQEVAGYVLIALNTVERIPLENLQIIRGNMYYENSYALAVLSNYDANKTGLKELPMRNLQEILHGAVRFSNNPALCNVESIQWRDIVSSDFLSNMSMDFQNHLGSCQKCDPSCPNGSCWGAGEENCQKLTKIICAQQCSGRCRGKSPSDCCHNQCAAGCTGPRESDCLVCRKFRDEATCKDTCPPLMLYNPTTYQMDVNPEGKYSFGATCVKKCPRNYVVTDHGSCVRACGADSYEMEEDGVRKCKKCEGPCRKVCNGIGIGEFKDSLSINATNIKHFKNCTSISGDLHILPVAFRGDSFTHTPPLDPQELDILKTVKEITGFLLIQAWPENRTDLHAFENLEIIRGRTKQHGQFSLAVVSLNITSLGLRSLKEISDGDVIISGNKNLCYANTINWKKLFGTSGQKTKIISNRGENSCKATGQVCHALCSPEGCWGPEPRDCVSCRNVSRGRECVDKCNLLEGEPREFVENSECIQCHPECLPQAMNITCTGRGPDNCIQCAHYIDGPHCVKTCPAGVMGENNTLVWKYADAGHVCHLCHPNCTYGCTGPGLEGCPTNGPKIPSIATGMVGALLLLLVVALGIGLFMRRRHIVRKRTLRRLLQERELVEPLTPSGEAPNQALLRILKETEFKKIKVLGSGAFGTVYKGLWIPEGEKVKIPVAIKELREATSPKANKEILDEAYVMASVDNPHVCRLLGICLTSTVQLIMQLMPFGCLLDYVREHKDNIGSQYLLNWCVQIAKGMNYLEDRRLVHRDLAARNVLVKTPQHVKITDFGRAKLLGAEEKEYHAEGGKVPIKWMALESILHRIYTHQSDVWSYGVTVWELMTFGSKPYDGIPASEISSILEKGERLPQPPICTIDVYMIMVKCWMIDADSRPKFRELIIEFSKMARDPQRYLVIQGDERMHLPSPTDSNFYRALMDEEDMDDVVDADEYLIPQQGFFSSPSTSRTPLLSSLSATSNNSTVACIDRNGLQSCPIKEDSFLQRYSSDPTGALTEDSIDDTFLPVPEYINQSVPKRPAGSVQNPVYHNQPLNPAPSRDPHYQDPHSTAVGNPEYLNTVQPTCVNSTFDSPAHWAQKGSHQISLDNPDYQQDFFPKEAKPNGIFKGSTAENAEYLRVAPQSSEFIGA

C=CC(=O)Nc1cncc(-c2cccc3cnc(Nc4ccc(N5CCN(C)CC5)cc4)nc23)c1 [Example C040, N-(5-(2-((4-(4-methylpiperazin-1-yl)phenyl)amino)quinazolin-8-yl)pyridin-3-yl)acrylamide] gave a pIC50 (EGFR (ErbB1) T790M L858R) of over 7.00, an inhibition at 0.041 µM (EGFR (ErbB1); read-out: % inhibition against EGFR (Compound at 0.041 μM)) of over 50% and a pIC50 (EGFR (ErbB1); read-out: IC50 against EGFR) of over 7.00. It also gave a pIC50 (HCC827 cells) of over 7.00, an inhibition at 0.041 µM (BTK) of over 50% and a pIC50 (H1975 cells) of over 7.00. It also gave an inhibition at 0.041 µM (JAK2) of under 50%, a pIC50 (A431 cells) of 6.30 to 7.00 and a pIC50 (H1299 cells) of 6.30 to 7.00.
